Where two headings read alike, the source gives them in different places.
Legend:
[1] = tested on: lignée tumorale leucémie L 1210; assay: In vitro cytotoxicity on L 1210 leukemia cell culture; type: cell-based; settings: Mus musculus, L1210; concentration inhibiting cell proliferation by 50 p. 100, after 48 h contact; read-out: ID 50 (the source's name)
Procedure: 1) In vitro : (PAOLETTI et al., Chem. Biol. Interaction, 1979, 25, 45-58).
L'activité cytotoxique des composés de l'invention a été évaluée par des essais in vitro. Ces essais consistent à ajouter des concentrations croissantes du composé à tester à une culture cellulaire de la lignée tumorale leucémie L 1210 en phase exponentielle de croissance. Les cellules sont incubées à 37°C dans une étuve à C02 et comptées toutes les 24 heures. Le calcul de l'ID 50 (concentration du produit exprimée en micromole 1^-1 qui inhibe la prolifération cellulaire à 50 p. 100) est effectué après 48 heures de contact. Ainsi déterminées, les ID 50 des composés de l'invention sont rassemblées dans le tableau I ci-après : […]

leucémie P 388 = type: in vivo, souris hybrides CDF1; settings: for Survivants: at day J 40
Text: (§1) L'activité antitumorale a été testée in vivo sur différentes tumeurs selon le protocole général suivant : Toutes les souris mâles ou femelles sont inoculées par voie intrapéritonéale au jour Jo avec une quantité déterminée de cellules tumorales viables, variable selon la tumeur.
(§2) Elles sont ensuite réparties en différents lots. Chaque lot correspondant aux animaux traités par le produit à tester à une dose déterminée est composé de lO souris. Dans ce cas, le produit à tester est dissous dans l'eau distillée et il est administré, pendant n jours (J1-Jn) variables selon le protocole choisi, par voie intrapéritonéale à raison de 0,1 ml par lO g de poids des souris traitées, les doses du produit administré étant précisées dans les tableaux ci-dessous.
(§3) Le lot "Contrôle négatif", correspondant aux animaux qui ne sont pas traités par un produit, comprend 2 √N animaux, N étant égal au nombre total de souris traitées par un produit.
(§4) Enfin, tous lés essais sont conduits parallèlement à l'étude d'un lot appelé "Contrôle positif" de 10 animaux qui est traité par une molécule active, variable selon le protocole choisi, dans les mêmes conditions que les lots traités par le produit à tester, afin de valider l'essai.
(§5) L'activité antitumorale est évaluée en considérant l'augmentation du temps de survie des animaux traités par rapport à celui des animaux du lot "Contrôle négatif" selon la formule : • Jour médian de survie des animaux traités à une T/C = dose donnée de produit x 100 • Jour médian de survie des animaux "Contrôle négatif"
(§6) Un composé est considéré comme étant actif lorsque la valeur du rapport T/C est égale ou supérieure à 125 % selon le protocole retenu. Il est toxique lorsque cette valeur est égale ou inférieure à 85 %. Le produit est également considéré comme toxique lorsque la variation pondérale, exprimée en grammes et calculée par la formule : Poids moyen du lot mesuré au jour 5 - poids moyen du même lot au jour 1, est égale ou inférieure à -4g . a) Test de la leucémie P 388 (GERAN et al., Cancer Chemother, 1972, 2, 07-57).
Les essais sont effectués avec des souris hybrides CDF1 inoculées par voie intrapéritonéale avec […] leucémiques de la lignée P 388. Le composé à tester est administré pendant 5 jours (Jl-J5). Le contrôle positif du test est le 5-fluorouracile qui est administré dans les mêmes conditions.
[…] Un composé est considéré comme étant actif lorsque le rapport T/C est supérieur à 127 %.

mélanome B 16 = assay: B 16 melanoma test in vivo; set-up: species or system souris hybrides BDF1; Jour médian de survie: unit not given here; settings: for Survivants: at day J 60
Text: as §1, §2, §3, §4, §5, §6
c) Test du mélanome B 16 (GERAN et al., Cancer Chemother, 1972, 2, 07-57).
Les essais sont effectués avec des souris hybrides BDF1 inoculées avec O,5 ml d'un homogénat de mélanome B 16 réalisé à partir de 1 g de tumeur dans 10 ml de sérum physiologique. Le composé à tester est administré pendant 9 jours (J1-J9). Le contrôle positif du test est le Cis- platine administré dans les mêmes conditions. Le nombre d'animaux survivants est évalué au jour J 60. Un composé est considéré comme étant actif lorsque le rapport T/C est supérieur ou égal à 125 %.

in vivo = assay: in vivo; set-up: species or system souris; settings: mouse, ip, 100 mg/kg
Procedure: Ainsi, l'administration à des souris hybrides CDF1 saines, en une injection unique par la voie intrapéritonéale, de doses croissantes des composés à tester (5 mg, 10 mg, 20 mg, 40 mg/kg) a permis de constater que, à ces doses, les produits étaient parfaitement tolérés puisque le taux de survivants était de 100 p. 100.
Dans les mêmes conditions, administrés à des souris BDF1 saines, les taux de survivants étaient de 100 p. 100 jusqu'à 100 mg/kg pour les dérivés 1, 3 et 9 et jusqu'à 200 mg/kg pour les dérivés 2 et 8.

| Structure (SMILES) | IC50 [1] [nM] | Jour médian de survie (leucémie P 388; 5 mg/kg i.p. J1-J5) | T/C % (leucémie P 388; 5 mg/kg i.p. J1-J5) [%] | Survivants (leucémie P 388; 5 mg/kg i.p. J1-J5) | Jour médian de survie (leucémie P 388; 10 mg/kg i.p. J1-J5) | T/C % (leucémie P 388; 10 mg/kg i.p. J1-J5) [%] | Survivants (leucémie P 388; 10 mg/kg i.p. J1-J5) | Jour médian de survie (leucémie P 388; 20 mg/kg i.p. J1-J5) | T/C % (leucémie P 388; 20 mg/kg i.p. J1-J5) [%] | Survivants (leucémie P 388; 20 mg/kg i.p. J1-J5) | Jour médian de survie (leucémie P 388; 40 mg/kg i.p. J1-J5) | T/C % (leucémie P 388; 40 mg/kg i.p. J1-J5) [%] | Survivants (leucémie P 388; 40 mg/kg i.p. J1-J5) | survival (in vivo) [%] | further results |
| --- | --- | --- | --- | --- | --- | --- | --- | --- | --- | --- | --- | --- | --- | --- | --- |
| CCN(CC)CCCCNc1ncc(C)c2c1c1cnccc1n2C [Dérivé N° 10, [(diéthylamino-4 butyl-1)amino]-1 diméthyl-4,5 5-H pyrido[3',4':4,5]pyrrolo[3,2-c]pyridine] | 2000 |  |  |  |  |  |  |  |  |  |  |  |  |  |  |
| CCN(CC)CCCNc1ncc(C)c2[nH]c3ccncc3c12 [Dérivé N° 1, [(diéthylamino-3 propyl-1)amino]-1 méthyl-4 5-H pyrido[3',4':4,5]pyrrolo[3,2-c]pyridine] | 340 | 14,1 | 132 | 0/10 | 14,6 | 136 | 0/10 | 15,9 | 148 | 0/10 | 16,6 | 155 | 0/10 | 100 | Jour médian de survie (leucémie P 388; 50 mg/kg i.p. J1-J5): 3,1; T/C % (leucémie P 388; 50 mg/kg i.p. J1-J5): 26%; Survivants (leucémie P 388; 50 mg/kg i.p. J1-J5): 0/10; Jour médian de survie (mélanome B 16; 5 mg/kg i.p. J1-J9): 28,25; T/C % (mélanome B 16; 5 mg/kg i.p. J1-J9): 119%; Survivants (mélanome B 16; 5 mg/kg i.p. J1-J9): 0; Jour médian de survie (mélanome B 16; 10 mg/kg i.p. J1-J9): 30,0; T/C % (mélanome B 16; 10 mg/kg i.p. J1-J9): 126%; Survivants (mélanome B 16; 10 mg/kg i.p. J1-J9): 0; Jour médian de survie (mélanome B 16; 20 mg/kg i.p. J1-J9): 34,25; T/C % (mélanome B 16; 20 mg/kg i.p. J1-J9): 144%; Survivants (mélanome B 16; 20 mg/kg i.p. J1-J9): 0 |
| CCCN(CCC)CCCNc1ncc(C)c2[nH]c3ccncc3c12 [Dérivé N° 12, [(dipropylamino-3 propyl-1)amino]-1 méthyl-4 5-H pyrido[3',4':4,5]pyrrolo[3,2-c]pyridine] | 8500 |  |  |  |  |  |  |  |  |  |  |  |  |  |  |
| Cc1cnc(NCCCN(C)C)c2c3cnccc3n(C)c12 [Dérivé N° 9, diméthyl-4,5 [(diméthylamino-3 propyl-1)-amino]-1 5-H pyrido[3',4':4,5]pyrrolo[3,2-c]pyridine] | 300 | 15,75 | 136 | 0 | 17,38 | 150 | 0 | 19,33 | 167 | 0 | 20,0 | 173 | 0 | 100 | Jour médian de survie (leucémie P 388; 80 mg/kg i.p. J1-J5): 8,25; T/C % (leucémie P 388; 80 mg/kg i.p. J1-J5): 71%; Survivants (leucémie P 388; 80 mg/kg i.p. J1-J5): 0 |
| CCCN(CCC)CCCNc1ncc(C)c2c1c1cnccc1n2C [Dérivé N° 13, diméthyl-4,5[(dipropylamino-3 propyl-1)ami-no]-l 5-H pyrido[3',4':4,5]pyrrolo[3,2-c]pyridine] | 3200 |  |  |  |  |  |  |  |  |  |  |  |  |  |  |

From patent EP0197829A1, “5H-pyrido[3',4':4,5]pyrrolo[3,2-c]pyridine derivatives, process for their preparation and their antitunour activity” (SANOFI, priority 1985, dated 1986)
